The results in this text go back to ChEMBL document CHEMBL1201862, “PubChem BioAssay data set” (2004).

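Where inhibition never reached the appropriate level, the endpoint shown equals the highest concentration tested. Otherwise, values were interpolated linearly from a five-concentration, 48-hour dose response in 96-well plates. The concentration for 50% growth inhibition is given as GI50.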 Active and inactive are the calls of the source. No stated cut-off is given here; in the data, active = GI50 up to about 1.1 µM and inactive = higher. Where a SMILES comes first, the peptide text is derived from it. [ ]: non-standard residue; d: D form. The star is where a group is joined. mTyr = N[CH](Cc1cccc(O)c1)C(=O)O; Cbz = O=C(OCc1ccccc1)*; OBn = c1ccc(CO*)cc1 A value given as a limit tells only on which side of the number the result lay.

Test systems include MOLT-4; SN12C; SF-539; ACHN; LOX IMVI; UACC-62; TK-10; NCI-H460; SW-620; SR; HCC 2998; RPMI-8226; SK-OV-3; SF-268; SF-295; Malme-3M; HCT-116; DU-145; MDA-N.
Holding throughout (assay): NCI-60 cell line screen, 48 h

For `CCOC(=O)NN1C(=O)C(=P(c2ccccc2)(c2ccccc2)c2ccccc2)C(C(=O)OCC)=C1C`, the GI50 with MOLT-4, in the experiment on SN12C, in the experiment with SF-539, in the experiment with ACHN, with LOX IMVI and with UACC-62 was > 100 µM (inactive) each time. The GI50 in the experiment on TK-10, in the experiment with NCI-H460, with SW-620, with SR, in the experiment on HCC 2998 and in the experiment with RPMI-8226 was > 100 µM (inactive) in each case. The GI50 in the experiment on SK-OV-3, with SF-268, in the experiment with SF-295, in the experiment on Malme-3M and in the experiment with HCT-116 was > 100 µM (inactive) each time.
For the molecule `CC(=O)O[C@H]1CC2C(C3CCC(C(C)CCC(N)=O)[C@]31C)[C@H](OC(C)=O)C[C@@H]1CC3(CC[C@]21C)OOC1(CC[C@]2(C)C4C[C@H](OC(C)=O)[C@]5(C)C(C(C)CCC(N)=O)CCC5C4[C@H](OC(C)=O)C[C@@H]2C1)OO3` (stereo not given in full), the GI50 with MOLT-4 was 1.11 µM (active); with SN12C it was 1.79 µM (inactive); in the experiment with ACHN, 1.62 µM (inactive); in the experiment with LOX IMVI it was 1.4 µM (inactive); in the experiment with TK-10 it was 1.8 µM (inactive); with NCI-H460, 1.69 µM (inactive). Moreover, the GI50 with SW-620 was 2.63 µM (inactive); in the experiment on DU-145 it was 1.73 µM (inactive); in the experiment with MDA-N, 1.65 µM (inactive); in the experiment on HCC 2998 it was 0.966 µM (active); with RPMI-8226, 1.22 µM (inactive); with SK-OV-3, 2.06 µM (inactive). In addition, the GI50 in the experiment with SF-268 is 1.75 µM (inactive); in the experiment on SF-295, 1.53 µM (inactive); in the experiment with Malme-3M, 2.61 µM (inactive); in the experiment on HCT-116, 1.33 µM (inactive).
Take `CCOC(=O)C1Nc2ccccc2[C@H]2OCC[C@@H]12` (stereo not given in full): the GI50 in the experiment with MOLT-4, with SN12C, in the experiment on SF-539, in the experiment with ACHN, in the experiment with LOX IMVI and in the experiment on UACC-62 was > 100 µM (inactive) in each case. The GI50 with TK-10, with NCI-H460, with SW-620, in the experiment on HCC 2998, in the experiment on SK-OV-3 and in the experiment with SF-268 was > 100 µM (inactive) throughout. In addition, the GI50 with SF-295, in the experiment with Malme-3M and with HCT-116 was > 100 µM (inactive) throughout.
Regarding `CN1CCN(c2nc3cc(F)ccc3n3cccc23)CC1`, the GI50 with MOLT-4 is 23.1 µM (inactive); with SN12C, 48.5 µM (inactive); with SF-539, 21.1 µM (inactive); in the experiment on ACHN it was 31.6 µM (inactive); in the experiment with LOX IMVI, 15.8 µM (inactive); in the experiment with UACC-62, 29.4 µM (inactive). The GI50 in the experiment on TK-10 was 39.6 µM (inactive); with NCI-H460, 18.5 µM (inactive); in the experiment on SW-620, 30.5 µM (inactive); in the experiment on MDA-N, 30.4 µM (inactive); in the experiment on SR it was 43.8 µM (inactive); in the experiment with HCC 2998, 42.1 µM (inactive). Also, the GI50 was 40.6 µM (inactive) in the experiment with RPMI-8226; 45.4 µM (inactive) in the experiment on SK-OV-3; 48.6 µM (inactive) in the experiment on SF-268; 21.2 µM (inactive) in the experiment on SF-295; 25.3 µM (inactive) with Malme-3M; 25.5 µM (inactive) in the experiment on HCT-116.
Take `Cc1cccc(C)c1NC(=O)C(=O)CC(=O)/C=C/c1ccccc1`: the GI50 in the experiment on MOLT-4, in the experiment on SN12C, in the experiment on SF-539, in the experiment on ACHN, in the experiment with LOX IMVI and in the experiment with UACC-62 was > 100 µM (inactive) in each case. For the same molecule, the GI50 was > 100 µM (inactive) with TK-10; 73.6 µM (inactive) in the experiment on NCI-H460; > 100 µM (inactive) in the experiment on SW-620; > 100 µM (inactive) with MDA-N; > 10 µM (inactive) in the experiment on SR; > 100 µM (inactive) with HCC 2998. In addition, the GI50 with RPMI-8226, in the experiment on SK-OV-3, with SF-268, in the experiment with SF-295, with Malme-3M and in the experiment on HCT-116 was > 100 µM (inactive) throughout.
`Cc1cc(-c2cscn2)c(O)c([N+](=O)[O-])c1`: the GI50 in the experiment with SN12C is 45 µM (inactive); with SF-539 it was 56 µM (inactive); in the experiment with ACHN, 37.2 µM (inactive); with LOX IMVI, 29.4 µM (inactive); with UACC-62 it was 62.7 µM (inactive); with TK-10, 52.7 µM (inactive). The GI50 with NCI-H460 was 34.2 µM (inactive); in the experiment with SW-620 it was 75.7 µM (inactive); with MDA-N it was 74.3 µM (inactive); in the experiment on HCC 2998, 81.3 µM (inactive); in the experiment with RPMI-8226, 52.6 µM (inactive); in the experiment on SK-OV-3, 16.1 µM (inactive). The GI50 in the experiment with SF-295 was 0.906 µM (active); in the experiment with Malme-3M, 70.6 µM (inactive); in the experiment on HCT-116, 49.7 µM (inactive).
For the molecule `COc1ccc2nc3cc(Cl)ccc3c(NCCC(=O)OCC(O)C(O)C(O[C@H](C)C(=O)NC(C)C(=O)NC(CCC(N)=O)C(=O)OCc3ccccc3)C(C=O)NC(C)=O)c2c1` (stereo not given in full), the GI50 in the experiment with MOLT-4 is 15.4 µM (inactive); with SN12C it was 16.1 µM (inactive); with SF-539 it was 16.8 µM (inactive); with ACHN, 18.1 µM (inactive); in the experiment with UACC-62, 17.9 µM (inactive); in the experiment with TK-10, 22.8 µM (inactive). Besides, the GI50 with NCI-H460 is 16.2 µM (inactive); with SW-620 it was 15 µM (inactive); with SR, 4.03 µM (inactive); with HCC 2998, 17.7 µM (inactive); in the experiment with SK-OV-3, 18.8 µM (inactive); in the experiment on SF-268 it was 17.9 µM (inactive). Besides, the GI50 was 18.2 µM (inactive) in the experiment with SF-295, > 100 µM (inactive) with Malme-3M and 18 µM (inactive) in the experiment with HCT-116.
As to `O=C(O)CC[N+]1=CCC(c2ccccc2)(c2ccccc2)O1`, the GI50 in the experiment on MOLT-4, with SN12C, in the experiment with SF-539, in the experiment with ACHN, with UACC-62 and with TK-10 was > 100 µM (inactive) throughout. Moreover, the GI50 in the experiment with NCI-H460, with SW-620, with DU-145, in the experiment on MDA-N, with HCC 2998 and in the experiment on SK-OV-3 was > 100 µM (inactive) throughout. In addition, the GI50 in the experiment with SF-268, in the experiment on SF-295 and in the experiment on HCT-116 was > 100 µM (inactive) in each case.
Take `COC(=O)CNC(=O)Nc1cc(N2C(=O)ON3C2C(C)(C)N(O)C3(C)C)ccc1C` (stereo not given): the GI50 with MOLT-4, in the experiment with SN12C, in the experiment with SF-539, with ACHN, in the experiment with LOX IMVI and in the experiment on UACC-62 was > 100 µM (inactive) in each case. Further, the GI50 in the experiment with TK-10, with NCI-H460, in the experiment on SW-620, with MDA-N, in the experiment on SR and in the experiment on HCC 2998 was > 100 µM (inactive) throughout. For the same molecule, the GI50 in the experiment with SK-OV-3 is > 100 µM (inactive); with SF-268 it was > 100 µM (inactive); in the experiment on SF-295 it was 55 µM (inactive); in the experiment with Malme-3M, > 100 µM (inactive); in the experiment on HCT-116, > 100 µM (inactive).
On to `COC(=O)C(Cc1cccc(O)c1)NC(=O)C(CC(=O)OCc1ccccc1)NC(=O)OCc1ccccc1` (stereo not given) (Cbz-Asp(OBn)-[mTyr]-OMe; configuration not given here), for which the GI50 was 32.1 µM (inactive) in the experiment on MOLT-4; > 100 µM (inactive) in the experiment on SN12C; 63.5 µM (inactive) with ACHN; 65.5 µM (inactive) with UACC-62; > 100 µM (inactive) with TK-10; 15.4 µM (inactive) in the experiment on NCI-H460. Moreover, the GI50 is > 100 µM (inactive) in the experiment with SW-620; > 100 µM (inactive) in the experiment with MDA-N; 46.1 µM (inactive) in the experiment with SR; > 100 µM (inactive) in the experiment with HCC 2998; 70.5 µM (inactive) in the experiment with RPMI-8226; > 100 µM (inactive) with Malme-3M. Besides, in the experiment with HCT-116, the GI50 was > 100 µM (inactive).
Consider `CC1=C(N2CC2)C(=O)c2ccccc2C1=O`, for which the GI50 is 1.11 µM (active) with MOLT-4; 0.312 µM (active) in the experiment with SN12C; 1.69 µM (inactive) with SF-539; 0.257 µM (active) with ACHN; 1.22 µM (inactive) with LOX IMVI; 0.811 µM (active) in the experiment with UACC-62. Further, the GI50 is 2.08 µM (inactive) in the experiment on TK-10; 0.454 µM (active) with NCI-H460; 0.185 µM (active) with SW-620; 0.116 µM (active) in the experiment with DU-145; 0.117 µM (active) in the experiment on SR; 2.52 µM (inactive) in the experiment on SK-OV-3. Further, the GI50 in the experiment on SF-268 is 0.359 µM (active); in the experiment on SF-295, 0.618 µM (active); in the experiment on Malme-3M, 1.27 µM (inactive); in the experiment with HCT-116, 1.37 µM (inactive).
Consider `CC1(C)CCC[C@]2(C)[C@@H]1CC[C@@]13O[C@@H]1C1=C(CO)C(=O)OC1=C[C@@H]23`, for which the GI50 is 17.3 µM (inactive) in the experiment with MOLT-4; 12.9 µM (inactive) with SN12C; 29.2 µM (inactive) in the experiment with ACHN; 13.5 µM (inactive) in the experiment with UACC-62; 25.2 µM (inactive) in the experiment on TK-10; 18.2 µM (inactive) with NCI-H460. Besides, the GI50 was 18.9 µM (inactive) in the experiment with SW-620; 18.4 µM (inactive) in the experiment on DU-145; 18.9 µM (inactive) in the experiment with HCC 2998; 21.1 µM (inactive) in the experiment on RPMI-8226; 20.6 µM (inactive) in the experiment with SK-OV-3; 15.2 µM (inactive) with SF-268. For the same molecule, the GI50 with SF-295 was 16.9 µM (inactive); in the experiment with Malme-3M, 1.1 µM (active); in the experiment on HCT-116 it was 1.44 µM (inactive).
